# Laboratory results reported in patent US20170121351A1, “Synthesis of Zinc-Lysine Complex From Zinc Chloride” (Colgate-Palmolive Company, priority 2014, published 2017).
# Test: Zeta potential
# Type: physicochemical
# Protocol: In certain embodiments, the ZLC, e.g., any of Complex 2, et seq. can have a zeta potential on the order of +10 to +60, e.g., between +20 and +50. Zeta potential is measured as described below. The zeta potential indicates the degree of repulsion between adjacent, similarly charged particles in a dispersion. For molecules and particles that are small enough to be influenced by […], a high zeta potential will tend to confer stability, i.e., the particles will tend to repel one another, and the solution or dispersion will resist aggregation. When the zeta potential is low, attraction exceeds repulsion and the dispersion will break and flocculate. Here, it is desirable to have a zeta potential that is high enough in formulation to deter aggregation, but low enough to allow flocculation and blockage of the pores. […] Having a similar zeta potential, the ZLC, e.g., any of Complex 2, et seq. will behave similarly and flocculate when introduced into a pore and becomes hydrated. In contrast, zinc chloride has a zeta potential of about 0, which is much lower than current antiperspirant salts and the current disclosure.
smiles,measurement,value
[Cl-].[Cl-].[Zn+2] [zinc chloride],zeta potential,about 0
